Test results from PubChem BioAssay (NCI).
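GI50 = concentration required for 50% inhibition of growth. TGI marks complete inhibition of growth.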

How the values were obtained:
Assay in all cases: growth of human tumour cells (NCI), 384-well format
SF-539 CNS = system: SF-539 CNS
NCI-H522 lung = system: NCI-H522 lung
MALME-3M melanoma = system: MALME-3M melanoma
MDA-MB-468 breast = system: MDA-MB-468 breast
SF-268 CNS = system: SF-268 CNS
HCT-116 colon = system: HCT-116 colon
CCRF-CEM leukemia = system: CCRF-CEM leukemia
COLO 205 colon = system: COLO 205 colon
SNB-75 CNS = system: SNB-75 CNS
SK-MEL-2 melanoma = system: SK-MEL-2 melanoma
UACC-62 melanoma = system: UACC-62 melanoma
EKVX NSCLC = system: EKVX NSCLC
MDA-MB-435 melanoma = system: MDA-MB-435 melanoma
CAKI-1 renal = system: CAKI-1 renal
IGROV1 ovarian = system: IGROV1 ovarian
NCI-H460 NSCLC = system: NCI-H460 NSCLC
RXF 393 renal = system: RXF 393 renal
ACHN renal = system: ACHN renal
SN12C renal = system: SN12C renal
KM12 colon = system: KM12 colon
TK-10 renal = system: TK-10 renal
HS 578T breast = system: HS 578T breast
HCC-2998 colon = system: HCC-2998 colon
OVCAR-4 ovarian = system: OVCAR-4 ovarian
SK-OV-3 ovarian = system: SK-OV-3 ovarian
HCT-15 colon = system: HCT-15 colon
UACC-257 melanoma = system: UACC-257 melanoma
SF-295 CNS = system: SF-295 CNS
K-562 leukemia = system: K-562 leukemia
U251 glioblastoma = system: U251 glioblastoma
HOP-62 NSCLC = system: HOP-62 NSCLC
UO-31 renal = system: UO-31 renal
T-47D breast = system: T-47D breast
RPMI-8226 leukemia = system: RPMI-8226 leukemia
NCI-H322M lung = system: NCI-H322M lung
HT29 colon = system: HT29 colon
NCI-H226 lung = system: NCI-H226 lung
NCI/ADR-RES ovarian = system: NCI/ADR-RES ovarian
SK-MEL-5 melanoma = system: SK-MEL-5 melanoma
M14 melanoma = system: M14 melanoma
A549 NSCLC = system: A549 NSCLC
BT-549 breast = system: BT-549 breast
NCI-H23 lung = system: NCI-H23 lung
OVCAR-3 ovarian = system: OVCAR-3 ovarian
LOX IMVI melanoma = system: LOX IMVI melanoma
SW-620 colon = system: SW-620 colon
SNB-19 CNS = system: SNB-19 CNS
MOLT-4 leukemia = system: MOLT-4 leukemia
786-0 renal = system: 786-0 renal
HOP-92 NSCLC = system: HOP-92 NSCLC
A498 renal = system: A498 renal
SR leukemia = system: SR leukemia
HL-60(TB) leukemia = system: HL-60(TB) leukemia
OVCAR-5 ovarian = system: OVCAR-5 ovarian
DU-145 prostate = system: DU-145 prostate
MDA-MB-231 breast = system: MDA-MB-231 breast
PC-3 prostate = system: PC-3 prostate
SK-MEL-28 melanoma = system: SK-MEL-28 melanoma
MCF7 breast = system: MCF7 breast

## Cc1cc(Nc2nc(N[C@@H](C)c3ncc(F)cn3)ncc2Cl)n[nH]1
SF-539 CNS
  GI50: 14 µM
  TGI: 34.1 µM
NCI-H522 lung
  GI50: 4.66 µM
  TGI: 28.5 µM
MALME-3M melanoma
  GI50: 52.8 µM
  TGI: > 100 µM
MDA-MB-468 breast
  GI50: 17.3 µM
  TGI: 33.1 µM
SF-268 CNS
  GI50: 18.4 µM
  TGI: 63.4 µM
HCT-116 colon
  GI50: 17.4 µM
  TGI: > 100 µM
CCRF-CEM leukemia
  GI50: 20.7 µM
  TGI: 45.1 µM
COLO 205 colon
  GI50: 41 µM
  TGI: > 100 µM
SNB-75 CNS
  GI50: 8.7 µM
  TGI: 27.9 µM
SK-MEL-2 melanoma
  GI50: 44.7 µM
  TGI: 85.1 µM
UACC-62 melanoma
  GI50: 40.7 µM
  TGI: > 100 µM
EKVX NSCLC
  GI50: 23.9 µM
  TGI: 79.3 µM
MDA-MB-435 melanoma
  GI50: 17.1 µM
  TGI: > 100 µM
CAKI-1 renal
  GI50: 23.7 µM
  TGI: > 100 µM
IGROV1 ovarian
  GI50: 27.8 µM
  TGI: > 100 µM
NCI-H460 NSCLC
  GI50: 21.5 µM
  TGI: > 100 µM
RXF 393 renal
  GI50: 18.9 µM
  TGI: 46 µM
ACHN renal
  GI50: 31.2 µM
  TGI: > 100 µM
SN12C renal
  GI50: 31.3 µM
  TGI: > 100 µM
KM12 colon
  GI50: 0.381 µM
  TGI: > 100 µM
TK-10 renal
  GI50: 34.6 µM
  TGI: > 100 µM
HS 578T breast
  GI50: 11.6 µM
  TGI: 29.9 µM
HCC-2998 colon
  GI50: 28.3 µM
  TGI: > 100 µM
OVCAR-4 ovarian
  GI50: 77.8 µM
  TGI: > 100 µM
SK-OV-3 ovarian
  GI50: 18.6 µM
  TGI: 78.1 µM
HCT-15 colon
  GI50: 26.4 µM
  TGI: > 100 µM
UACC-257 melanoma
  GI50: > 100 µM
  TGI: > 100 µM
SF-295 CNS
  GI50: 47.4 µM
  TGI: > 100 µM
K-562 leukemia
  GI50: 27.9 µM
  TGI: > 100 µM
U251 glioblastoma
  GI50: 32.1 µM
  TGI: > 100 µM
HOP-62 NSCLC
  GI50: 39.1 µM
  TGI: > 100 µM
UO-31 renal
  GI50: 36.7 µM
  TGI: > 100 µM
T-47D breast
  GI50: 29.8 µM
  TGI: > 100 µM
RPMI-8226 leukemia
  GI50: 18.4 µM
  TGI: 73 µM
NCI-H322M lung
  GI50: 42.6 µM
  TGI: > 100 µM
HT29 colon
  GI50: 27.4 µM
  TGI: > 100 µM
NCI-H226 lung
  GI50: 12 µM
  TGI: > 100 µM
NCI/ADR-RES ovarian
  GI50: 20.2 µM
  TGI: 60.4 µM
SK-MEL-5 melanoma
  GI50: 30.5 µM
  TGI: > 100 µM
M14 melanoma
  GI50: 61.7 µM
  TGI: > 100 µM
A549 NSCLC
  GI50: 30.4 µM
  TGI: > 100 µM
BT-549 breast
  GI50: 20.7 µM
  TGI: 78.1 µM
NCI-H23 lung
  GI50: 35.2 µM
  TGI: > 100 µM
OVCAR-3 ovarian
  GI50: 43.8 µM
  TGI: > 100 µM
LOX IMVI melanoma
  GI50: 27.6 µM
  TGI: 71 µM
SW-620 colon
  GI50: 24.3 µM
  TGI: 91.3 µM
SNB-19 CNS
  GI50: 47.5 µM
  TGI: > 100 µM
MOLT-4 leukemia
  GI50: 16.7 µM
  TGI: 33.8 µM
786-0 renal
  GI50: 33.6 µM
  TGI: > 100 µM
HOP-92 NSCLC
  GI50: 27.8 µM
  TGI: 91.3 µM
A498 renal
  GI50: 35.8 µM
  TGI: > 100 µM
SR leukemia
  GI50: 5.01 µM
  TGI: 12.2 µM
HL-60(TB) leukemia
  GI50: 16 µM
  TGI: 31 µM
OVCAR-5 ovarian
  GI50: 45.1 µM
  TGI: > 100 µM
DU-145 prostate
  GI50: 37.1 µM
  TGI: > 100 µM
MDA-MB-231 breast
  GI50: 27.5 µM
  TGI: > 100 µM
PC-3 prostate
  GI50: 42.1 µM
  TGI: > 100 µM
SK-MEL-28 melanoma
  GI50: 59.1 µM
  TGI: > 100 µM
MCF7 breast
  GI50: 44.3 µM
  TGI: > 100 µM
